Results taken from patent US10765114B2, “4-amino-6-(pyridyl and 2-substitutedphenyl)-picolinates and 6-amino-2-(pyridyl and 2-substitutedphenyl)-pyrimidine-4-carboxylates and their use as herbicides” (Dow AgroSciences LLC, priority 2013, dated 2020).

System: Key Broadleaf Weed and Crop Species
Assay: Post-Emergent Test II (Table 5)
Assay type: in vivo
Conditions: Abutilon theophrasti, post-emergence, 336 h, ABUTH: velvetleaf (Abutilon theophrasti), application rate 70 (kg ai/ha; footnote: g ai/ha), read-out: Visual Growth Reduction (%) 14 Days After Application ABUTH
Summary of the method: (§1)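 Plants at first or second true-leaf stage, grown 7-21 days in greenhouse, were sprayed post-emergence at 187 L/ha with compounds in acetone/DMSO/water/crop oil/surfactant mixture at the high rate and ½× to 1/16× dilutions. Injury scored visually after 14 days, 0 (none) to 100% (complete kill), versus untreated plants.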

SMILES | pest or weed control at 70 g/ha [%]
COC(=O)c1nc(-c2ccc(C)nc2F)c(F)c(N)c1Cl [Compound 76] | 85 to 94

Same assay, conditions: Abutilon theophrasti, post-emergence, 336 h, ABUTH: velvetleaf (Abutilon theophrasti), application rate 140 (kg ai/ha; footnote: g ai/ha), read-out: Visual Growth Reduction (%) 14 Days After Application ABUTH

SMILES | pest or weed control at 140 g/ha [%]
COC(=O)c1nc(-c2ccc(C)nc2F)c(F)c(N)c1Cl [Compound 76] | 85 to 94

Same assay, conditions: Amaranthus retroflexus, post-emergence, 336 h, AMARE: redroot pigweed (Amaranthus retroflexus), application rate 70 (kg ai/ha; footnote: g ai/ha), read-out: Visual Growth Reduction (%) 14 Days After Application AMARE

SMILES | pest or weed control at 70 g/ha [%]
COC(=O)c1nc(-c2ccc(C)nc2F)c(F)c(N)c1Cl [Compound 76] | 95 to 100

Same assay, conditions: Amaranthus retroflexus, post-emergence, 336 h, AMARE: redroot pigweed (Amaranthus retroflexus), application rate 140 (kg ai/ha; footnote: g ai/ha), read-out: Visual Growth Reduction (%) 14 Days After Application AMARE

SMILES | pest or weed control at 140 g/ha [%]
COC(=O)c1nc(-c2ccc(C)nc2F)c(F)c(N)c1Cl [Compound 76] | 95 to 100

Same assay, conditions: Brassica napus, post-emergence, 336 h, BRSSS: oilseed rape, canola (Brassica napus), application rate 70 (kg ai/ha; footnote: g ai/ha), read-out: Visual Growth Reduction (%) 14 Days After Application BRSSS

SMILES | pest or weed control at 70 g/ha [%]
COC(=O)c1nc(-c2ccc(C)nc2F)c(F)c(N)c1Cl [Compound 76] | 85 to 94

Same assay, conditions: Brassica napus, post-emergence, 336 h, BRSSS: oilseed rape, canola (Brassica napus), application rate 140 (kg ai/ha; footnote: g ai/ha), read-out: Visual Growth Reduction (%) 14 Days After Application BRSSS

SMILES | pest or weed control at 140 g/ha [%]
COC(=O)c1nc(-c2ccc(C)nc2F)c(F)c(N)c1Cl [Compound 76] | 95 to 100

Same assay, conditions: Chenopodium album, post-emergence, 336 h, CHEAL: lambsquarters (Chenopodium album), application rate 70 (kg ai/ha; footnote: g ai/ha), read-out: Visual Growth Reduction (%) 14 Days After Application CHEAL

SMILES | pest or weed control at 70 g/ha [%]
COC(=O)c1nc(-c2ccc(C)nc2F)c(F)c(N)c1Cl [Compound 76] | 95 to 100

Same assay, conditions: Chenopodium album, post-emergence, 336 h, CHEAL: lambsquarters (Chenopodium album), application rate 140 (kg ai/ha; footnote: g ai/ha), read-out: Visual Growth Reduction (%) 14 Days After Application CHEAL

SMILES | pest or weed control at 140 g/ha [%]
COC(=O)c1nc(-c2ccc(C)nc2F)c(F)c(N)c1Cl [Compound 76] | 95 to 100

Same assay, conditions: Euphorbia heterophylla, post-emergence, 336 h, EPHHL: wild poinsettia (Euphorbia heterophylla), application rate 70 (kg ai/ha; footnote: g ai/ha), read-out: Visual Growth Reduction (%) 14 Days After Application EPHHL

SMILES | pest or weed control at 70 g/ha [%]
COC(=O)c1nc(-c2ccc(C)nc2F)c(F)c(N)c1Cl [Compound 76] | 95 to 100

Same assay, conditions: Helianthus annuus, post-emergence, 336 h, HELAN: sunflower (Helianthus annuus), application rate 70 (kg ai/ha; footnote: g ai/ha), read-out: Visual Growth Reduction (%) 14 Days After Application HELAN

SMILES | pest or weed control at 70 g/ha [%]
COC(=O)c1nc(-c2ccc(C)nc2F)c(F)c(N)c1Cl [Compound 76] | 85 to 94

Same assay, conditions: Helianthus annuus, post-emergence, 336 h, HELAN: sunflower (Helianthus annuus), application rate 140 (kg ai/ha; footnote: g ai/ha), read-out: Visual Growth Reduction (%) 14 Days After Application HELAN

SMILES | pest or weed control at 140 g/ha [%]
COC(=O)c1nc(-c2ccc(C)nc2F)c(F)c(N)c1Cl [Compound 76] | 95 to 100

Same assay, conditions: Viola tricolor, post-emergence, 336 h, VIOTR: wild pansy (Viola tricolor), application rate 70 (kg ai/ha; footnote: g ai/ha), read-out: Visual Growth Reduction (%) 14 Days After Application VIOTR

SMILES | pest or weed control at 70 g/ha [%]
COC(=O)c1nc(-c2ccc(C)nc2F)c(F)c(N)c1Cl [Compound 76] | 0 to 29

Same assay, conditions: Viola tricolor, post-emergence, 336 h, VIOTR: wild pansy (Viola tricolor), application rate 140 (kg ai/ha; footnote: g ai/ha), read-out: Visual Growth Reduction (%) 14 Days After Application VIOTR

SMILES | pest or weed control at 140 g/ha [%]
COC(=O)c1nc(-c2ccc(C)nc2F)c(F)c(N)c1Cl [Compound 76] | 0 to 29

System: Key Grass and Sedge Weeds as well as Grass Crops
Assay: Post-Emergent Test II (Table 6)
Assay type: in vivo
Conditions: post-emergence, 336 h, CYPSS, 70 g ai/ha, 14 days after application, read-out: Visual Growth Reduction (%) 14 Days After Application CYPSS
Summary of the method: as §1

SMILES | pest or weed control at 70 g/ha [%]
COC(=O)c1nc(-c2ccc(C)nc2F)c(F)c(N)c1Cl [Compound 76] | 0 to 29

Same assay, conditions: post-emergence, 336 h, CYPSS, 140 g ai/ha, 14 days after application, read-out: Visual Growth Reduction (%) 14 Days After Application CYPSS

SMILES | pest or weed control at 140 g/ha [%]
COC(=O)c1nc(-c2ccc(C)nc2F)c(F)c(N)c1Cl [Compound 76] | 0 to 29

Same assay, conditions: post-emergence, 336 h, DIGSA: crabgrass (Digitaria sanguinalis), 70 g ai/ha, 14 days after application, read-out: Visual Growth Reduction (%) 14 Days After Application DIGSA

SMILES | pest or weed control at 70 g/ha [%]
COC(=O)c1nc(-c2ccc(C)nc2F)c(F)c(N)c1Cl [Compound 76] | 75 to 84

Same assay, conditions: post-emergence, 336 h, DIGSA: crabgrass (Digitaria sanguinalis), 140 g ai/ha, 14 days after application, read-out: Visual Growth Reduction (%) 14 Days After Application DIGSA

SMILES | pest or weed control at 140 g/ha [%]
COC(=O)c1nc(-c2ccc(C)nc2F)c(F)c(N)c1Cl [Compound 76] | 85 to 94

Same assay, conditions: post-emergence, 336 h, ECHSS, 70 g ai/ha, 14 days after application, read-out: Visual Growth Reduction (%) 14 Days After Application ECHSS

SMILES | pest or weed control at 70 g/ha [%]
COC(=O)c1nc(-c2ccc(C)nc2F)c(F)c(N)c1Cl [Compound 76] | 75 to 84

Same assay, conditions: post-emergence, 336 h, ECHSS, 140 g ai/ha, 14 days after application, read-out: Visual Growth Reduction (%) 14 Days After Application ECHSS

SMILES | pest or weed control at 140 g/ha [%]
COC(=O)c1nc(-c2ccc(C)nc2F)c(F)c(N)c1Cl [Compound 76] | 85 to 94

Same assay, conditions: post-emergence, 336 h, ORYSS (crop), 70 g ai/ha, 14 days after application, read-out: Visual Growth Reduction (%) 14 Days After Application ORYSS

SMILES | pest or weed control at 70 g/ha [%]
COC(=O)c1nc(-c2ccc(C)nc2F)c(F)c(N)c1Cl [Compound 76] | 0 to 29

Same assay, conditions: post-emergence, 336 h, ORYSS (crop), 140 g ai/ha, 14 days after application, read-out: Visual Growth Reduction (%) 14 Days After Application ORYSS

SMILES | pest or weed control at 140 g/ha [%]
COC(=O)c1nc(-c2ccc(C)nc2F)c(F)c(N)c1Cl [Compound 76] | 0 to 29

Same assay, conditions: post-emergence, 336 h, SETFA: giant foxtail (Setaria faberi), 70 g ai/ha, 14 days after application, read-out: Visual Growth Reduction (%) 14 Days After Application SETFA

SMILES | pest or weed control at 70 g/ha [%]
COC(=O)c1nc(-c2ccc(C)nc2F)c(F)c(N)c1Cl [Compound 76] | 45 to 59

Same assay, conditions: post-emergence, 336 h, SETFA: giant foxtail (Setaria faberi), 140 g ai/ha, 14 days after application, read-out: Visual Growth Reduction (%) 14 Days After Application SETFA

SMILES | pest or weed control at 140 g/ha [%]
COC(=O)c1nc(-c2ccc(C)nc2F)c(F)c(N)c1Cl [Compound 76] | 60 to 74

Same assay, conditions: post-emergence, 336 h, SORVU: grain sorghum (Sorghum vulgare), 70 g ai/ha, 14 days after application, read-out: Visual Growth Reduction (%) 14 Days After Application SORVU

SMILES | pest or weed control at 70 g/ha [%]
COC(=O)c1nc(-c2ccc(C)nc2F)c(F)c(N)c1Cl [Compound 76] | 45 to 59

Same assay, conditions: post-emergence, 336 h, SORVU: grain sorghum (Sorghum vulgare), 140 g ai/ha, 14 days after application, read-out: Visual Growth Reduction (%) 14 Days After Application SORVU

SMILES | pest or weed control at 140 g/ha [%]
COC(=O)c1nc(-c2ccc(C)nc2F)c(F)c(N)c1Cl [Compound 76] | 45 to 59

Same assay, conditions: post-emergence, 336 h, TRZSS (crop), 70 g ai/ha, 14 days after application, read-out: Visual Growth Reduction (%) 14 Days After Application TRZSS

SMILES | pest or weed control at 70 g/ha [%]
COC(=O)c1nc(-c2ccc(C)nc2F)c(F)c(N)c1Cl [Compound 76] | 30 to 44

Same assay, conditions: post-emergence, 336 h, TRZSS (crop), 140 g ai/ha, 14 days after application, read-out: Visual Growth Reduction (%) 14 Days After Application TRZSS

SMILES | pest or weed control at 140 g/ha [%]
COC(=O)c1nc(-c2ccc(C)nc2F)c(F)c(N)c1Cl [Compound 76] | 45 to 59

Same assay, conditions: post-emergence, 336 h, ZEAMX: maize, corn (Zea mays), 70 g ai/ha, 14 days after application, read-out: Visual Growth Reduction (%) 14 Days After Application ZEAMX

SMILES | pest or weed control at 70 g/ha [%]
COC(=O)c1nc(-c2ccc(C)nc2F)c(F)c(N)c1Cl [Compound 76] | 0 to 29

Same assay, conditions: post-emergence, 336 h, ZEAMX: maize, corn (Zea mays), 140 g ai/ha, 14 days after application, read-out: Visual Growth Reduction (%) 14 Days After Application ZEAMX

SMILES | pest or weed control at 140 g/ha [%]
COC(=O)c1nc(-c2ccc(C)nc2F)c(F)c(N)c1Cl [Compound 76] | 95 to 100

System: not given
Assay: not given
Conditions: not given

melting point [°C] | SMILES
165 to 166 | COC(=O)c1nc(-c2ccc(C)nc2F)c(F)c(N)c1Cl [Compound 76]
